Assay results taken from patent US20170209544A1, “A PEPTIDE THERAPY TO COUNTERACT INSULIN RESISTANCE AND TYPE 2 DIABETES” (The Regents of the University of California, priority 2014, published 2017).
Where no end group is shown, it is not given here.

Tests used:
KO-DIO mice = assay: Hepatic gene expression in PST-treated KO-DIO mice; format: in vivo; details: PST 5 μg/g BW for 15 days
Protocol: RNA from tissues was extracted using a kit (RNeasy Plus, Qiagen, Valencia, Calif.). After DNase digestion, 200 ng of RNA was transcribed into cDNA in a 20-μl reaction using a High Capacity cDNA Archive kit and this cDNA was amplified. PCR (25-μl reactions) contained 5 μl of cDNA, 2×SYBR Green PCR Master Mix, and 400 nM of each primer. Differences in the threshold cycle number (ΔCt) between the target gene, the housekeeping gene Gapdh and the ribosomal protein gene 36B4 were used to calculate differences in expression. Primer sequences are provided below.
To determine chronic effects, KO-NCD mice were treated with saline, PST (5 μg/g BW), PSTv1 (10 μg/g BW) or PST+PSTv1 for 15 days, fasted for 12 hrs after the last of injection and subjected to (FIG. 14C) GTT (2-way ANOVA: Treatment (Sal vs PST), Time, p<0.0001; Interaction, p<0.05; Treatment (PST vs PSTv1), p<0.0001; Time, p<0.0001; Interaction, p<0.01; n=7). The corresponding AUC is shown in (FIG. 14D). FIG. 14E reports liver glycogen at basal and during clamp in DIO mice (n=6). FIG. 14F reports chronic effects of PST (5 μg/g BW for 15 days) on expression of hepatic gluconeogenic genes (Pepck and G6pase) in DIO mice (n=6). FIG. 14G reports chronic effects of PST (5 μg/g BW for 15 days) on expression of hepatic lipid metabolic (Acc, Ppara, Cpt-1, Acox-1 and Srebp-1) genes in DIO mice (n=6). […]

adipocytes = assay: Leptin production in adipocytes; format: cell-based
Source text: (§1) Mutant PST peptides were synthesized and screened. The peptides were synthesized as various deletion peptides of PST. Native PST (SEQ ID NO. 2) inhibited insulin-stimulated glucose uptake and leptin production in adipocytes. The inventors tested various deletion mutant PST peptides whether one or more of them would compete and prevent native PST action in adipocytes.

3T3-L1 adipocytes = assay: Insulin-stimulated glucose uptake in adipocytes; format: cell-based; details: 3T3-L1 adipocytes in culture; without any PST variant present
Source text: as §1

KO-NCD mice = assay: GTT in NCD-fed Chga-KO mice (acute and chronic); format: in vivo
Protocol: For glucose tolerance tests (GTT), glucose (1 mg/g) was injected intraperitoneally (IP-GTT) (at time zero) or gavaged orally (O-GTT) after a 12-hours fast. Tail-vein glucose levels were measured at −30, 0, 15, 30, 60, 90, and 120 minutes. For insulin tolerance tests (ITT), insulin (0.4 mU/g) was injected intraperitoneally and blood glucose levels were measured at the indicated time points. Chronic PST (5 μg/g/day) and PSTv1 (10 μg/day) treatments were carried out for 15 days. For acute treatment, either peptides or saline were injected 30 minutes before glucose or insulin injection. Synergy Software Kaleidagraph Version 4.0 calculated the area under the curve (AUC) for each line curve.
To determine acute effects, NCD fed Chga-KO mice (KO-NCD) were fasted for 12 hrs, treated with saline, PST (5 μg/g BW), PSTv1 (10 μg/g BW) or PST+PSTv1 for 30 min (−30 min) before injecting glucose (0 min) for (FIG. 14A) IP-GTT (2-way ANOVA: Treatment (Sal vs PST), p<0.0001, Time, p<0.0001; Interaction, p<0.002; Treatment (PST vs PSTv1), p<0.0001; Time, p<0.0001; Interaction, p<0.005; n=7). The corresponding AUC is shown in (FIG. 14B). […]

Chga-KO mice [1] = assay: Glucose-stimulated insulin secretion during GTT in Chga-KO mice; format: in vivo
Source text: As shown in FIGS. 4A-4D, to compare the effects of PSTv1 (the peptide with SEQ ID NO. 1) vs. PST on glucose-stimulated insulin secretion (GSIS), the inventors analyzed plasma insulin levels in Chga-KO mice during GTT experiments.

GRP78 = GRP78 (Homo sapiens, UniProt P11021); assay: GRP78 ATPase enzymatic activity; format: biochemical
Chga-KO mice [2] = assay: Body weight of Chga-KO mice on NCD; format: in vivo; details: PST administration for 2 weeks

GRP78, sequence (P11021 19-654, species assumed): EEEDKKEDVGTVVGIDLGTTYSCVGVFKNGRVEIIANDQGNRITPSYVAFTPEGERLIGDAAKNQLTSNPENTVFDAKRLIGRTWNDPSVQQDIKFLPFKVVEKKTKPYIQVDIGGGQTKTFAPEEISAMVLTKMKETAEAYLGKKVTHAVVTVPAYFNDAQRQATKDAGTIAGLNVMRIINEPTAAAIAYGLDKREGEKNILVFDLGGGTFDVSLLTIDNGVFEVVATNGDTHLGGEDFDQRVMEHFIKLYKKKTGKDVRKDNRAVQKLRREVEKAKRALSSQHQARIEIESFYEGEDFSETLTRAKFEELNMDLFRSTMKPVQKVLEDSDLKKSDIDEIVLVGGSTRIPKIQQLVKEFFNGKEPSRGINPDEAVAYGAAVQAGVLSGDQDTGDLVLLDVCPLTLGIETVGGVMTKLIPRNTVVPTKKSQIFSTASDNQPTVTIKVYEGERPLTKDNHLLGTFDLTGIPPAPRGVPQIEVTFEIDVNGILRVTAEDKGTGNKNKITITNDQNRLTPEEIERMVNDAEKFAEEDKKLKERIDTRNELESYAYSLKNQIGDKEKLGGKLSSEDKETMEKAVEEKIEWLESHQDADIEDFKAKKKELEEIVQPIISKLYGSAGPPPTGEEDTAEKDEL

PEGKGEQEHSQQKEEEEEMAVVPQGLFRG-amide (PEGKGEQEHSQQKEEEEEMAVVPQGLFRG-NH2) [PST, Wild-type human pancreastatin, a chromogranin A derived peptide]
lower mRNA levels of Pepck and G6pase in KO-DIO liver (KO-DIO mice): reversed | expression of Acox-1 and Cpt-1 (KO-DIO mice; liver): increased | leptin production (adipocytes): inhibited | inhibition of insulin-stimulated glucose uptake (3T3-L1 adipocytes): 35% | blood glucose after acute PST treatment (KO-NCD mice; acute, Chga-KO mice on normal chow diet): induces hyperglycemia | insulin sensitivity (GTT) (KO-NCD mice; chronic PST 5 μg/g BW for 15 days, Chga-KO mice on NCD): induced insulin resistance | glucose-stimulated insulin secretion (GSIS) (Chga-KO mice [1]): lowers GSIS | plasma glucose concentration (Chga-KO mice [1]): without lowering plasma glucose concentration | GRP78's ATPase enzymatic activity (GRP78): inhibits | body weight (Chga-KO mice [2]): did not change
